Measured values taken from paper PMC8157578 (Antioxidants, 2021).
Entries after “also recorded” stand apart in the source; their conditions may differ.

Experiments:
[1] = tested on: HeLa cells; assay: Immunofluorescence analysis of intracellular γ-H2AX generation in iron-overloaded HeLa cells (with H2O2); format: cell-based, human; details: for Inhibition of cellular DNA damage induced by iron overload (with H2O2), in words / Concentration that significantly inhibits cellular DNA damage induced by iron overload (with H2O2): γ-H2AX, HeLa; for Fluorescence intensity of γ-H2AX: Fe(II)-H2O2 alone 2.86±0.64; for Concentration that significantly inhibits cellular DNA damage induced by iron overload (with H2O2): pre-treatment
Method: The immortalized human cervical carcinoma HeLa cell line used in this study was obtained from the Cell Resource Center, Peking Union Medical College. The cell line was checked to be free of mycoplasma contamination by PCR and culture. Its species origin was confirmed with PCR. The identity of the cell line was authenticated with STR profiling (FBI, CODIS). HeLa cells were cultured in a DMEM medium (4 mM L-glutamine, 4500 mg/L glucose, and no sodium pyruvate) with 10% fetal bovine serum (FBS) and 1% penicillin–streptomycin at 37 °C under a 5% CO2 atmosphere.
HeLa cells (10^4/well) were loaded by incubation with 20 μM Fe(II) for 2 h at 37 °C. […] For a detailed experimental procedure, please refer to the Supplementary Materials and our previous report. The experiment was repeated three times. The observation of the fluorescence of γ-H2AX in HeLa cells was conducted with a confocal laser scanning microscope (CLSM) (Leica TCS SP). Thirty cells in each group were randomly selected in different microscopic fields for quantitative detection. In detail, each well was equally divided into nine fields and numbered sequentially from the top right corner. Four fields were randomly selected according to a random number table. Thirty cells were then randomly selected from these four fields. All images were analyzed blind regarding exposure parameters, which were coded by one person and read by another who was blinded to the code. The fluorescence intensity of the γ-H2AX signal on selected images was automatically analyzed using the Image-J software. The Statistical Product and Service Solutions (SPSS 21) program was employed to analyze the data through ANOVA. Significant difference from iron-overloaded group are marked with * p < 0.05, ** p < 0.01, and *** p < 0.001.
(§1) 2.1 Immunofluorescence analysis of intracellular γ-H2AX generation in Hela cells
(§2) Fixed cells were permeabilized with 0.25% Triton-X100 in PBS for 10 min and blocked in 10%
(§3) normal goat serum, 0.1% tween 20 in PBS for 1 hour. The cells were incubated with primary
(§4) monoclonal antibody, γ-H2AX (Ser139, 20E3, Rabbit, mAb #9718) (1:600) overnight at 4°C, and then
(§5) stained secondary antibodies, anti-rabbit Alexa-488 and anti-mouse (Cell Signaling Technology) for
(§6) 1 hour. After Hoechst 33342 (10 μg/mL) staining for 2 min, dishes were mounted in ProLong™ Gold
(§7) Antifade Mountant (Invitrogen™) and stored at 4°C in the dark before confocal laser-scanning by
(§8) Broadband Confocal Leica TCS SP5. The CLSM images were obtained with the following excitation
respectively. Cells were washed 3 times with PBS (200 μL/well) at intervals. […]

[2] = tested on: HeLa cells; assay: Labile iron pool (LIP) determination with calcein-AM in iron-overloaded HeLa cells, flow cytometry; format: cell-based, human; details: for Fluorescence intensity of calcein-AM (LIP level): 15 min, Fe(II) alone 0.63-0.64
Method: HeLa cells (10^6/mL) were loaded by incubation with 20 μM Fe(II) for 2 h at 37 °C. Subsequently, cells were collected by centrifugation (1000 rpm for 5 min) and incubated with 0.5 μM calcein-AM for 15 min at 37 °C in a D’hanks buffer of pH 7.4. Cells were then washed twice by D’hanks buffer (pH 7.4) and incubated with or without CAPE and its analogues. The fluorescence was monitored by both flow cytometry (BD FACS Caliber) and a CLSM (Leica TCS SP). The experiment was repeated three times.
Figure 3 Effect of CAPE and its analogues on the LIP level in iron-overloaded cells, as measured by flow cytometry (A–D). HeLa cells were pretreated with 20 μM Fe(II) for 2 h and then incubated with calcein-AM. After 15 min, cells were washed and incubated with or without CAPE and its analogues for 15 min. The fluorescence intensity of cells was measured by flow cytometry. Significant differences from the iron-overloaded group are marked with * p < 0.05, ** p < 0.01, and *** p < 0.001. The experiment was repeated three times.

[3] = tested on: plasmid pBR322 DNA; assay: Plasmid DNA strand breakage induced by Fe(III)–citrate/ascorbate/H2O2, agarose gel electrophoresis; format: biochemical; details: for Protective effect against iron-mediated DNA damage through inhibiting •OH generation, in words: isolated DNA, Fe(III) and Fe(II) systems, Figures S9–S12
Method: Plasmid DNA agarose gel electrophoresis was employed to investigate protective effect of CAPE and its analogues against DNA strand breakage induced by an iron-mediated system. For experimental procedure details, please refer to the Supplementary Materials.
Figure 4 Protective effect of CAPE and its analogues against Fe(III)–citrate–ascorbate–H2O2-induced DNA damage. […] The reaction mixture contained 20 μM Fe(III)–citrate, 10 μM ascorbate, and 200 μM H2O2, as well as the indicated concentrations of CAPE and its analogues. The experiments were repeated three times, and only typical images are presented. […]
(§9) The experiments were conducted via incubation of plasmid pBR322 DNA (5 μg/mL) at 37 °C for
(§10) 30 min in Chelex-treated HEPES buffer (100 mM, pH 7.4) with the iron-containing systems, in the
absence or presence of the indicated concentrations of CAPE and its analogues. […]

[4] = ESR spin-trapping (DMPO) of •OH generated by Fe(III)–citrate–ascorbate–H2O2; format: biochemical; details: 100 μM Fe(III)–citrate, 100 μM ascorbate, 1 mM H2O2
Method: The basic system used in this study consisted of Fe(III)/Fe(II), ascorbate, H2O2, and the spin trapping agent DMPO (100 mM) in 20 mM HEPES (pH 7.4) with or without CAPE and its analogues.
The reaction mixture contained 100 μM Fe(III)–citrate, 100 μM ascorbate, and 1 mM H2O2, as well as the indicated concentrations of CAPE and its analogues. The experiments were repeated three times, and only typical spectra are presented.
spectrometer parameters were as follows: scan range, 100 G; field set, 3470 G; time constant, 200 ms;
scan time, 100 s; modulation amplitude, 1.0 G; modulation frequency, 100 kHz; receiver gain,

[5] = Calcein fluorescence quenching by Fe(III)–citrate, competition by ligand; format: binding; details: 0.1 μM calcein, 100 μM Fe(III)–citrate, 100–500 μM compound
Method: In the presence of calcein, mixtures of CAPE and Fe(III)/Fe(II) with different concentrations in 20 mM HEPES (pH 7.4) were used for fluorescence detection (Ex: 488 nm; Em: 515 nm). Fluorescence spectra were recorded using a Cary Eclipse fluorescence spectrophotometer (Varian, Palo Alto, CA, USA).
Figure 7 Effect of CAPE and its analogues on the fluorescence intensity of calcein–Fe(III)–citrate. (A,B) the fluorescence quenching of calcein by Fe(III)–citrate diminished in a (CAPE/CA:Fe(III)) ratio-dependent manner. […] The reaction mixture contained 0.1 μM calcein, 100 μM Fe(III)–citrate, and indicated concentrations of CAPE or its analogues (100–500 μM). The experiments were repeated three times, and only typical spectra are presented.

[6] = 1-octanol/phosphate buffer partitioning, shake-flask method; format: physicochemical; details: 1-octanol / 100 mM phosphate buffer pH 7.4, shake-flask
[7] = Dissolved oxygen consumption by ascorbic acid/Fe(III)–citrate; format: biochemical; details: 100 μM Fe(III)-citrate, 1 mM ascorbate, ratio 5:1
Method: as §1, §2, §3, §4, §5, §6, §7, §8
respectively. Cells were washed 3 times with PBS (200 μL/well) at intervals.
as §9, §10
absence or presence of the indicated concentrations of CAPE and its analogues.
2.3 Electron spin resonance (ESR) spin-trapping studies
ESR spectra were recorded at room temperature in a Bruker ESR 300 spectrometer. Typical […]
The consumption of O2 was measured by Orion 3 dissolved oxygen meter (Thermo Scientific, […]
Corona Needle current was 3000 nA. The size of data points was recorded in 4 M format. […]

[8] = tested on: HeLa cells; assay: Labile iron pool (LIP) determination with calcein-AM in iron-overloaded HeLa cells, flow cytometry; format: cell-based, human; details: 500 μM compound alone, no iron
[9] = Cyclic voltammetry of Fe(III) chelated by ligand; format: physicochemical; details: 100 mM PB pH 7.4, SCE reference, 2 mV/s; Fe(III) alone approximately −0.65 V
Method: CV was performed in 100 mM PB (pH 7.4) on a Princeton Applied Research (VersaSTAT3) potentiostat with a Pt wire as the counter electrode, a saturated calomel electrode (SCE) as the reference electrode, and a glassy carbon electrode (5 mm in diameter) as the working electrode. The scan rate was 2 mV/s.

[10] = 20 μM Fe(III)–citrate, 10 μM ascorbate, 200 μM H2O2

| Structure (SMILES) | LogKow [6] | Reduction potential of Fe(III) chelated by compound [9] | Inhibition of cellular DNA damage induced by iron overload (with H2O2), in words [1] | Fluorescence intensity of calcein-AM (LIP level) ([2]; 20 μM Fe(II) + 50 μM compound) | Fluorescence intensity of calcein-AM (LIP level) ([2]; 20 μM Fe(II) + 200 μM compound) | Fluorescence intensity of calcein-AM (LIP level) ([2]; 20 μM Fe(II) + 500 μM compound) | Effect on calcein fluorescence (LIP level), in words ([2]; iron-overloaded HeLa cells, 50–500 μM) | Protective effect against Fe(III)–citrate–ascorbate–H2O2-induced DNA damage, in words [3, 10] | Inhibitory effect against Fe(III)-citrate-Vc-H2O2 induced •OH generation, in words [4] | Inhibition of calcein fluorescence quenching by Fe(III)–citrate, in words [5] | Effect on O2 consumption induced by ascorbic acid/Fe(III)–citrate, in words [7] | Fluorescence intensity of calcein-AM (LIP level) [8] | Fluorescence intensity of γ-H2AX ([1]; Fe(II)-H2O2 + 50 μM compound) | Fluorescence intensity of γ-H2AX ([1]; Fe(II)-H2O2 + 100 μM compound) | Fluorescence intensity of γ-H2AX ([1]; Fe(II)-H2O2 + 200 μM compound) | Fluorescence intensity of γ-H2AX ([1]; Fe(II)-H2O2 + 500 μM compound) | Concentration that significantly inhibits cellular DNA damage induced by iron overload (with H2O2) [1] | Concentration that significantly regenerates calcein fluorescence (decreases LIP level) ([2]; iron-overloaded HeLa cells) | Concentration range with the stated inhibition of Fe(III)-citrate-Vc-H2O2 induced DNA damage ([3]; 20 μM Fe(III)–citrate, 10 μM ascorbate, 200 μM H2O2, CAPE significantly, CA slightly) | Protective effect against iron-mediated DNA damage through inhibiting •OH generation, in words [3] |
| --- | --- | --- | --- | --- | --- | --- | --- | --- | --- | --- | --- | --- | --- | --- | --- | --- | --- | --- | --- | --- |
| O=C(O)/C=C/c1ccc(O)c(O)c1 [CA, caffeic acid] | – | −0.76 V | – | 0.63±0.02 Fold of Control | 0.64±0.01 Fold of Control | 0.70±0.02 Fold of Control | – | lower than CAPE; also recorded: slightly inhibited | – | weaker inhibition | – | 1.00±0.02 Fold of Control | 3.13±0.42 Fold of Control | 3.09±0.51 Fold of Control | 2.82±0.43 Fold of Control | 1.73±0.43 Fold of Control | 500 µM | 500 µM | 20 to 200 µM | – |
| CCOC(=O)/C=C/c1ccc(O)c(O)c1 [CAEE, caffeic acid ethyl ester] | 1.51 ± 0.03 | −0.99 V | – | – | – | – | – | – | – | – | – | – | – | – | – | – | 50 to 500 µM | 50 to 500 µM | – | weaker than CAPE |
| c1cnc2c(c1)ccc1cccnc12 [OP, 1,10-phenanthroline, reference compound] | – | – | effective | – | – | – | – | – | – | – | – | – | – | – | – | – | – | – | – | – |

The next lines start with results.

| LogKow [6] | Reduction potential of Fe(III) chelated by compound [9] | Structure (SMILES) | Inhibition of cellular DNA damage induced by iron overload (with H2O2), in words [1] | Fluorescence intensity of calcein-AM (LIP level) ([2]; 20 μM Fe(II) + 50 μM compound) | Fluorescence intensity of calcein-AM (LIP level) ([2]; 20 μM Fe(II) + 200 μM compound) | Fluorescence intensity of calcein-AM (LIP level) ([2]; 20 μM Fe(II) + 500 μM compound) | Effect on calcein fluorescence (LIP level), in words ([2]; iron-overloaded HeLa cells, 50–500 μM) | Protective effect against Fe(III)–citrate–ascorbate–H2O2-induced DNA damage, in words [3, 10] | Inhibitory effect against Fe(III)-citrate-Vc-H2O2 induced •OH generation, in words [4] | Inhibition of calcein fluorescence quenching by Fe(III)–citrate, in words [5] | Effect on O2 consumption induced by ascorbic acid/Fe(III)–citrate, in words [7] | Fluorescence intensity of calcein-AM (LIP level) [8] | Fluorescence intensity of γ-H2AX ([1]; Fe(II)-H2O2 + 50 μM compound) | Fluorescence intensity of γ-H2AX ([1]; Fe(II)-H2O2 + 100 μM compound) | Fluorescence intensity of γ-H2AX ([1]; Fe(II)-H2O2 + 200 μM compound) | Fluorescence intensity of γ-H2AX ([1]; Fe(II)-H2O2 + 500 μM compound) | Concentration that significantly inhibits cellular DNA damage induced by iron overload (with H2O2) [1] | Concentration that significantly regenerates calcein fluorescence (decreases LIP level) ([2]; iron-overloaded HeLa cells) | Concentration range with the stated inhibition of Fe(III)-citrate-Vc-H2O2 induced DNA damage ([3]; 20 μM Fe(III)–citrate, 10 μM ascorbate, 200 μM H2O2, CAPE significantly, CA slightly) | Protective effect against iron-mediated DNA damage through inhibiting •OH generation, in words [3] |
| --- | --- | --- | --- | --- | --- | --- | --- | --- | --- | --- | --- | --- | --- | --- | --- | --- | --- | --- | --- | --- |
| 1.38 ± 0.02 | – | CCOC(=O)/C=C/c1ccc(O)c(OC)c1 [EF, ethyl ferulate] | no significant inhibition | 0.65±0.03 Fold of Control | 0.62±0.02 Fold of Control | 0.61±0.02 Fold of Control | no effect | no significant protective effect | no inhibitory effect | no inhibitory effects | no significant effects | 0.99±0.01 Fold of Control | – | – | – | – | – | – | – | – |
| 1.27 ± 0.06 | −0.79 V | COC(=O)/C=C/c1ccc(O)c(O)c1 [CAME, caffeic acid methyl ester] | – | – | – | – | – | – | – | – | – | – | – | – | – | – | 100 to 500 µM | 200 to 500 µM | – | weaker than CAPE |
